Experimental data reported in patent US20120129842A1, “BISTHIAZOLE INHIBITORS OF PRO-MATRIX METALLOPROTEINASE ACTIVATION” (priority 2010, published 2012).

Key:
SCW-induced arthritis = experiment: Efficacy in rats with SCW-induced arthritis (ankle thickness, clinical scores); assay type: in vivo, rat; details: 5, 20, 50 mg/kg BID oral
Excerpt: A polyarthritis can be induced in female Lewis rats following i.p. administration of streptococcal cell wall (SCW) […] (PG-PS) (J Exp Med 1977; 146:1585-1602). The model has an acute phase (days 3-7) that is complement and neutrophil-dependent and that resolves. A chronic erosive phase begins at about day ten and is dependent on the development of specific T cell immunity to the PG-GS, which resists digestion and remains present in synovial macrophages for months. Like rheumatoid arthritis, SCW-induced arthritis is reduced by TNF inhibitors, and the dependence of SCW-induced arthritis on macrophages (Rheumatology; 2001; 40:978-987) and the strong association of rheumatoid arthritis severity with synovial-tissue macrophage counts (Ann Rheum Dis; 2005; 64:834-838) makes SCW-arthritis an attractive model for testing potential therapeutic agents. SCW PG-PS 10S (Beckton Dickinson Cat#210866) suspended in saline was vortexed for 30 seconds and sonicated for 3 min with a probe type sonicator prior to injection. […]
To induce arthritis, Female Lewis (LEW/N) rats, 5-6 weeks of age (80-100 g) were injected (i.p.) with SCW PG-PS as described above. […] Each ankle was measured 3 times and averaged, and treatment groups were randomized based on ankle thickness (Table 6). […]

[1] = target: proMMP13(1-268) (SEQ ID NO:7) (Homo sapiens, UniProt P45452); experiment: ThermoFluor binding assay with proMMP13(1-268); set-up: 6xHis (C); made in house; details: pH 7.0
Procedure, shortened: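 Thermal shift binding with 3.5 μM protein and 25 μM 1,8-ANS in 50 mM HEPES pH 7.0, 100 mM NaCl, 0.001% Tween-20, 2.5 mM MgCl2, 300 μM CaCl2. Samples were heated 40 to 90 °C at 1 °C/min, fluorescence read at 500 nm. Tm shifts across an 11-point DMSO dilution series were fitted with DSC-derived thermodynamic parameters.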

Cc1nc(C)c(-c2csc(Nc3cc(S(N)(=O)=O)ccc3OC(C)C)n2)s1 [Example 64, 3-(2′,4′-Dimethyl-[4,5′]bithiazolyl-2-ylamino)-4-isopropoxy-benzenesulfonamide.HBr]
ankle thickness measurements, effect of treatment (SCW-induced arthritis; Day 18-26): dose-dependent decrease in ankle thickness measurements | clinical score measurements, effect of treatment (SCW-induced arthritis; significant effects emerging at 20 mg/kg): dose dependent decrease in clinical score measurements | Kd [1]: 140 nM
